# Columns and labels:
# FKBP-12 protein = target: T1, FKBP-12 protein (Homo sapiens, UniProt P62942); assay: SPR (surface plasma resonance) binding with FKBP-12
# T1 construct: purchased sigma Co
# Description: (1) FKBP-12 protein was purchased from sigma Co.
# (2) HBS-EP buffer solution (10 mM Hepes, 150 mM NaCl, 3.4 mM EDTA, 0.005% (v/v) surfactant P20, pH 7.4)
# (3) Activating reagents EDC and NHS, and blocking reagents Ethanolamine, etc., were purchased from BIACORE AB Co. (Uppsala, Sweden).
# (4) BIAcore 3000 and CM5 chip were purchased from BIACORE AB Co. (Uppsala, Sweden).
# (2) […] was coupled to the FC2 channel on CM5 chip by using the Wizard for amino-coupling in Biacore 3000 controlling soft. 3.3 g/L of FKBP-12 protein was diluted with 10 mM NaAC (pH 4.6) to 66 μg/ml. The surface of the chip was washed by injecting a mixture of 0.1M1-(3-dimethylaminopropyl)-3-ethylcarbodiimide hydrochloride (EDCI) and 0.1M N-hydroxysuccinimide (NHS) (1:1) at a flow rate of 20 μL/min for 7 min. After that, the protein solution was injected, and then a 1M cholamine (pH 8.5) solution was fed for 7 min to block the activated surface of the chip. Preliminary screening and pharmacokinetic tests on the compounds
# The binding abilities of small molecular compounds with FKBP-12 protein were evaluated by SPR (surface plasma resonance). The stock solution of the compound was 10 mM, and was diluted by HBS-EP buffer solution at given ratios. Pharmacokinetic tests were carried out by the Wizard for kinetic analysis in Biacore 3000 controlling soft. The resulted data were fitted by 1:1 Langmuir binding model or stability model in Biacore 3000 analytical soft to obtain the exact kinetic and thermodynamic constants.
# [1] = test system: acute graft-versus-host disease (aGVHD); assay: Acute graft-versus-host disease (aGVHD) mouse model; type: in vivo, C57B/6 mice; settings: 1.5 mg/kg/d, intraperitoneal injection, FIG. 15
# Description: Donator: BABL/C mice; acceptor: C57B/6 mice.
# C57B/6(H-2^b) mice, female, 7 weeks old, were used as the acceptor mice to receive 8.5 Gy of total body irradiation in a Gammacell.
# After the acceptor mice received irradiation for 4 to 6 hours, the heterogenetic bone marrow transplantation was carried out.
# BABL/C(H-2^d) mice, female, 4 weeks old were used as the donator mice. The bone marrow cells in long bone of the mice limbs and the spleen lymphocytes were collected and suspended in a PBS buffer solution respectively by adjusting the cell concentration to 1×10^8.
# The two kinds of cells were mixed equivalently to prepare a mixed cell suspension. Each acceptor mouse was intravenously injected with 0.5 ml of the suspension.
# Mice were randomly divided into 3 groups with 10 mice in each group. Mice were administered once daily from the first day when the bone marrow transplantation was carried out.
# Y-31 group (1.5 mg/kg/d, intraperitoneal injection)
# (1) Body weight: weighted once daily;
# (2) The survival time of the mice after BMT was recorded.
# [2] = test system: bovine type II collagen-induced arthritis; assay: Bovine type II collagen-induced arthritis; type: in vivo, DBA/1 mice; settings: 1 mg/kg, from 14th day after attack, 3 weeks, FIG. 16, P<0.05
# [3] = test system: human prostate cancer PC-3 xenograft; assay: PC-3 xenograft on nude mice; settings: 1-5 × 3.5 w; for TV (mm3) d0: baseline
# T1 sequence (P62942 whole entry, species assumed): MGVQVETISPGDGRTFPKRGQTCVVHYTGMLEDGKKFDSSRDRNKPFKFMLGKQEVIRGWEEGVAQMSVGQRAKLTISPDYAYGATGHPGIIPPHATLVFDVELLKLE
smiles,measurement,setting,value
CO[C@H]1C[C@@H]2CC[C@@H](C)[C@@](O)(O2)C(=O)C(=O)N2CCCC[C@H]2C(=O)O[C@H]([C@H](C)C[C@@H]2CC[C@@H](OC(=O)OCC(O)CO)[C@H](OC)C2)CC(=O)[C@H](C)/C=C(\C)[C@@H](O)[C@@H](OC)C(=O)[C@H](C)C[C@H](C)/C=C/C=C/C=C/1C (stereo partly drawn) [Y31],binding with FKBP12,FKBP-12 protein,concentration-dependently bind
same,Kd,FKBP-12 protein; FKBP12,0.1 nM
same,koff,FKBP-12 protein; FKBP12,0.11 × 10^−3 S^−1
same,kon,FKBP-12 protein; FKBP12,1.05 × 10^6 M^−1S^−1
same,R^U (Response Unit) compared with rapamycin,FKBP-12 protein; at the same concentration,higher
same,concentration to reach the saturation state for the binding with FKBP12,FKBP-12 protein; compared with rapamycin,lower than that for rapamycin
same,effect on the survival rate of the aGVHD mice,[1],markedly increase the survival rate
same,effect on the weight loss caused by aGVHD,[1],significantly alleviate the weight loss
same,effect on the severe degree of CIA (arthritis score),[2],significantly reduce the severe degree of CIA
CO[C@H]1C[C@@H]2CC[C@@H](C)[C@@](O)(O2)C(=O)C(=O)N2CCCC[C@H]2C(=O)O[C@H]([C@H](C)C[C@@H]2CC[C@@H](O)[C@H](OC)C2)CC(=O)[C@H](C)/C=C(\C)[C@@H](O)[C@@H](OC)C(=O)[C@H](C)C[C@H](C)/C=C/C=C/C=C/1C [Rapamycin],Body Weight (g) end,"[3]; Table 3, 2.5 mg/kg p.o",21.8 g
same,Body Weight (g) start,"[3]; Table 3, 2.5 mg/kg p.o",19.8 g
same,RTV,"[3]; Table 3, 2.5 mg/kg p.o",3.03 ± 1.5
same,T/C (%),"[3]; Table 3, 2.5 mg/kg p.o",46.5%
same,TV (mm3) d21,"[3]; Table 3, 2.5 mg/kg p.o",277 ± 98 mm3
same,TV (mm3) d0,"[3]; Table 3, 2.5 mg/kg p.o",100 ± 39 mm3
same,Body Weight (g) end,"[3]; Table 3, 5 mg/kg p.o",22.2 g
same,Body Weight (g) start,"[3]; Table 3, 5 mg/kg p.o",22.2 g
same,RTV,"[3]; Table 3, 5 mg/kg p.o",2.0 ± 1.2
same,T/C (%),"[3]; Table 3, 5 mg/kg p.o",30.9%
same,TV (mm3) d21,"[3]; Table 3, 5 mg/kg p.o",170 ± 88 mm3
same,TV (mm3) d0,"[3]; Table 3, 5 mg/kg p.o",96 ± 38 mm3

# — patent publication US8455510B2
